Laboratory results published in US20070027195A1, “Novel compositions comprising higher primary alcohols and nicottinic acid and process of preparation thereof” (PANACEA BIOTEC LTD., priority 2004, published 2007).
Marks after values point to notes of the source that are not given here.

Test system: mice fed with hypercholesterolemic diet
Assay: Cholesterol diet-induced hypercholesterolemia in mice (serum lipid profile)
Assay type: in vivo, Swiss mice
Settings: for HDL-C / LDL-C / Total cholesterol / Triglycerides / VLDL-C: hypercholesterolemic diet, fasting serum, mean ± S.E.M.
Procedure: In the present invention, the observed unexpected synergistic lipid lowering effect of combination of Extract-A and nicotinic acid is evidenced by the test conducted in mice. Swiss mice of either sex were procured from Central Animal House facility; Panacea Biotec Ltd., India. Animals weighing 20-25 g at the time of testing were used throughout. All animals were dosed sequentially by the oral route with Extract-A and/or nicotinic acid suspended in 0.5% of carboxy methyl cellulose (CMC). A dosing volume of 10 ml/kg was used for each sequential suspension.
The fasting serum lipid profile (TC, TGs, LDL-C, HDL-C, and VLDL) was estimated before initiation of the experiment. Total study duration was of 8 weeks. Hypercholesterolemia was induced by feeding standard chow mixed with 1% cholesterol and 0.2% cholic acid to mice (Kaur and Kulkarni, 2000). Control animals received standard mice chow for 8 weeks whereas cholesterolemic control animals received hypercholesterolemic diet for 8 weeks. The presence of hyperlipidemia in mice was confirmed by estimating serum lipid parameters after 4 weeks. Thereafter, various doses of Extract-A and/or nicotinic acid were administered for another 4 weeks during which animals were fed with high cholesterol diet. Blood samples were collected from fasted mice and analyzed for any alteration in serum lipid profile after 4 weeks of test compound(s) administration.
All the data were expressed as mean ±S.E.M. (Standard Error of Mean). Student t-test was used to compare the lipid parameters between animals fed with standard and hypercholesterolemic diet. The difference between various drug treated groups was analyzed by ANOVA followed by Dunnett's test. A value of P<0.05 was considered as statistically significant.

O=C(O)c1cccnc1 [Nicotinic acid]
HDL-C (10 mg/kg p.o. for 4 weeks): 45.82 ± 4.9^a mg/dl
LDL-C (10 mg/kg p.o. for 4 weeks): 65.5 ± 7.01^a mg/dl
Total cholesterol (10 mg/kg p.o. for 4 weeks): 118.0 ± 4.3^a mg/dl
Triglycerides (10 mg/kg p.o. for 4 weeks): 33.3 ± 2.6^a mg/dl
VLDL-C (10 mg/kg p.o. for 4 weeks): 20 ± 0.52^a mg/dl
HDL-C (20 mg/kg p.o. for 4 weeks): 42.16 ± 3.19^a mg/dl
LDL-C (20 mg/kg p.o. for 4 weeks): 61.2 ± 2.14^a mg/dl
Total cholesterol (20 mg/kg p.o. for 4 weeks): 109.5 ± 1.60^a mg/dl
Triglycerides (20 mg/kg p.o. for 4 weeks): 30.66 ± 1.58^a mg/dl
VLDL-C (20 mg/kg p.o. for 4 weeks): 6.13 ± 0.31^a mg/dl
HDL-C (40 mg/kg p.o. for 4 weeks): 51.33 ± 2.04^a mg/dl
LDL-C (40 mg/kg p.o. for 4 weeks): 44.53 ± 2.17^a mg/dl
Total cholesterol (40 mg/kg p.o. for 4 weeks): 101.6 ± 2.59^a mg/dl
Triglycerides (40 mg/kg p.o. for 4 weeks): 29.0 ± 1.46^a mg/dl
VLDL-C (40 mg/kg p.o. for 4 weeks): 5.8 ± 0.29^a mg/dl
Effect on serum lipid parameters in comparison to hypercholesterolemic control (in words) (10-40 mg/kg, p.o., dose dependently): reversed all the serum lipid parameters
